Measured values taken from US9447148B2, “Melanocortin-1 receptor-specific cyclic peptides” (Palatin Technologies, Inc., priority 2009, dated 2016).
Bridge positions count the residues as written; N and C are the ends. Square brackets hold non-standard residues; d marks the D form. Peptide text beside a SMILES is read from it. dPhe(3,4-F2) = N[C@H](Cc1ccc(F)c(F)c1)C(=O)O; dPhe(3-Cl) = N[C@H](Cc1cccc(Cl)c1)C(=O)O; dPhe(2-Cl) = N[C@H](Cc1ccccc1Cl)C(=O)O; dPhe(4-F) = N[C@H](Cc1ccc(F)cc1)C(=O)O; Nle = CCCC[C@H](N)C(=O)O; Orn = NCCC[C@H](N)C(=O)O; Dab = NCC[C@H](N)C(=O)O; Dap = NC[C@H](N)C(=O)O

Experiments:
hMCR-1a = hMCR-1a (Homo sapiens (Human), UniProt Q01726); experiment: Competitive inhibition binding assay using [I125]-NDP-α-MSH, hMCR-1a; settings: membrane homogenates of HEK-293 cells, human recombinant receptor, averaged, read-out: MC-1 Ki (average)
Method: (§1) A competitive inhibition binding assay was performed using membrane homogenates prepared from HEK-293 cells that express recombinant hMCR-1a or hMCR-4 (in each instance where the h prefix refers to human), or alternatively membrane homogenates from B16-F10 mouse melanoma cells containing endogenous murine MCR-1. In the examples that follow, all MCR-1 and MCR-4 values are for human recombinant receptors, unless otherwise noted. Assays were performed in 96 well polypropylene round-bottom plates (VWR catalog number 12777-030). […] After incubation for 90 minutes at 37° C., the assay mixture was filtered onto GF/B Unifilter plates (Perkin-Elmer catalog number 6005177) and washed with 3 mL of ice-cold buffer per well. Filters were air dried and 35 μL of scintillation cocktail added to each well. Plates were counted in a Microbeta counter for bound radioactivity. […] Each assay was conducted in duplicate and the actual mean values are described, with results less than 0% reported as 0%. Ki values for peptides of the present invention were determined using Graph-Pad Prism® curve-fitting software.
(§2) Peptides of the following structures were synthesized and averaged MCR-1 and MCR-4 Ki values were determined as indicated. […] All results are expressed in nM except for Emax values, which are percentage values. Peptides with the captioned primary sequence were synthesized and purified as described in Section 5 above, with the resulting peptide having the structure depicted.

hMCR-1 = hMCR-1 (Homo sapiens (Human), UniProt Q01726); experiment: Assay for agonist activity: intracellular cAMP accumulation in HBL human melanoma cells; assay type: cell-based; settings: for EC50: HBL cells expressing hMCR-1, averaged, read-out: MC-1 EC50 (average; cAMP HBL)
Method: Confluent HBL cells that express hMCR-1 or HEK-293 cells that express recombinant hMCR-4 were detached from culture plates by incubation in enzyme-free cell dissociation buffer. Dispersed cells were suspended in Earle's Balanced Salt Solution containing 10 mM HEPES (pH 7.5), 1 mM MgCl2, 1 mM glutamine, 0.5% albumin and 0.3 mM 3-isobutyl-1-methyl-xanthine (IBMX), a phosphodiesterase inhibitor. The cells were plated in 96-well plates at a density of 0.4×10^5 cells per well for HBL cells and 0.5×10^5 cells per well for HEK-293 cells and pre-incubated for 10 minutes. Cells were exposed for 15 minutes at 37° C. to peptides of the present invention dissolved in DMSO (final DMSO concentration of 1%) at a concentration range of 0.05-5000 nM in a total assay volume of 200 μL. […] Data analysis was performed by nonlinear regression analysis with Graph-Pad Prism® software.
as §2

hMCR-4 = hMCR-4 (Homo sapiens (Human), UniProt P32245); experiment: Competitive inhibition binding assay using [I125]-NDP-α-MSH, hMCR-4; settings: membrane homogenates of HEK-293 cells, human recombinant receptor, averaged, read-out: MC-4 Ki (average)
Method: as §1, §2

hMCR-1, sequence (Q01726 whole entry): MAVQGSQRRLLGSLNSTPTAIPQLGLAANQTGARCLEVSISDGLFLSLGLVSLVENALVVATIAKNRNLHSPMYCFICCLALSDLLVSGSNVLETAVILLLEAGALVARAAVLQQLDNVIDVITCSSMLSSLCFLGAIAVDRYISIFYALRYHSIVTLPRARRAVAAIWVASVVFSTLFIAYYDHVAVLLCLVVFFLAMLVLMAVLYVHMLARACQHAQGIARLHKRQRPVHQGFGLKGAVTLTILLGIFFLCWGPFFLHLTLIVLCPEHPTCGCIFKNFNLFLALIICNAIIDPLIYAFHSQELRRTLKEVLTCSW
hMCR-1a, sequence (Q01726 whole entry): as above
hMCR-4, sequence (P32245 whole entry): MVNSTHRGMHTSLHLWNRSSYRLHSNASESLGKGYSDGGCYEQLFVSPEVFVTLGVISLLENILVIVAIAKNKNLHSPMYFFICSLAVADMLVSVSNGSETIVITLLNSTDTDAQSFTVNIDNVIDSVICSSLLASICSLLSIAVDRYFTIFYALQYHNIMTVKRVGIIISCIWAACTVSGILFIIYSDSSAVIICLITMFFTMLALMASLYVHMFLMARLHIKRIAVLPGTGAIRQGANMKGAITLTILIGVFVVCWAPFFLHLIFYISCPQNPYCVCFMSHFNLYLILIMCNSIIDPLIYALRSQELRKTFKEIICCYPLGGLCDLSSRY

| Ki (hMCR-1a) [nM] | EC50 (hMCR-1) [nM] | Ki (hMCR-4) [nM] | Emax (hMCR-1; HBL, HBL cells, maximum efficacy compared to reference agonist NDP-α-MSH, read-out: MC-1 Emax (average; cAMP HBL)) [%] | SMILES |
| --- | --- | --- | --- | --- |
| 0.8 | 0.115 | 10000 | – | CCCC[C@H](NC(C)=O)C(=O)N[C@H]1CCC(=O)NCC[C@@H](C(=O)N[C@@H](Cc2c[nH]c3ccccc23)C(N)=O)NC(=O)[C@H](C)NC(=O)[C@@H](Cc2ccccc2)NC(=O)[C@H](Cc2c[nH]cn2)NC1=O [Example 9.35, Ac-Nle-cyclo(Glu-His-D-Phe-Ala-Dab)-Trp-NH2] (Ac-[Nle]EH[dF]A[Dab]W-NH2; lactam 2-6) |
| 30 | 1 | 10000 | – | CCCC[C@H](NC(C)=O)C(=O)N[C@H]1CCC(=O)NCC[C@@H](C(N)=O)NC(=O)[C@H](CCCNC(=N)N)NC(=O)[C@@H](Cc2ccccc2Cl)NC(=O)[C@H](CCCN)NC1=O [Example 9.57, Ac-Nle-cyclo(Glu-Orn-D-Phe(2-Cl)-Arg-Dab)-NH2] (Ac-[Nle]E[Orn][dPhe(2-Cl)]R[Dab]-NH2; lactam 2-6) |
| 2 | 0.08 | 7480 | – | CCCC[C@H](NC(C)=O)C(=O)N[C@H]1CCC(=O)NCC[C@@H](C(=O)N[C@@H](C)C(N)=O)NC(=O)[C@H](CCCNC(=N)N)NC(=O)[C@@H](Cc2ccccc2)NC(=O)[C@H](Cc2c[nH]cn2)NC1=O [Example 9.25, Ac-Nle-cyclo(Glu-His-D-Phe-Arg-Dab)-Ala-NH2] (Ac-[Nle]EH[dF]R[Dab]A-NH2; lactam 2-6) |
| 40 | 1 | 10000 | – | CCCC[C@H](NC(C)=O)C(=O)N[C@H]1CCC(=O)NCC[C@@H](C(N)=O)NC(=O)[C@H](CCCNC(=N)N)NC(=O)[C@@H](Cc2ccc(F)c(F)c2)NC(=O)[C@H](CCCN)NC1=O [Example 9.62, Ac-Nle-cyclo(Glu-Orn-D-Phe(3,4-F)-Arg-Dab)-NH2] (Ac-[Nle]E[Orn][dPhe(3,4-F2)]R[Dab]-NH2; lactam 2-6) |
| 7 | 0.32 | 10000 | – | CCCC[C@H](NC(C)=O)C(=O)N[C@H]1CCC(=O)NCC[C@@H](C(N)=O)NC(=O)[C@H](CCCNC(=N)N)NC(=O)[C@@H](Cc2ccccc2)NC(=O)[C@H](Cc2c[nH]cn2)NC1=O [Example 9.32, Ac-Nle-cyclo(Glu-His-D-Phe-Arg-Dab)-NH2] (Ac-[Nle]EH[dF]R[Dab]-NH2; lactam 2-6) |
| 9 | 4 | 10000 | – | CCCC[C@H](NC(C)=O)C(=O)N[C@H]1CCC(=O)NCC[C@@H](C(=O)N[C@@H](Cc2c[nH]c3ccccc23)C(N)=O)NC(=O)CNC(=O)[C@@H](Cc2ccccc2)NC(=O)[C@H](Cc2c[nH]cn2)NC1=O [Example 9.34, Ac-Nle-cyclo(Glu-His-D-Phe-Gly-Dab)-Trp-NH2] (Ac-[Nle]EH[dF]G[Dab]W-NH2; lactam 2-6) |
| 20 | 1 | 10000 | – | CCCC[C@H](NC(C)=O)C(=O)N[C@H]1CCC(=O)NCC[C@@H](C(N)=O)NC(=O)[C@H](CCCNC(=N)N)NC(=O)[C@@H](Cc2ccc(F)cc2)NC(=O)[C@H](CCCN)NC1=O [Example 9.61, Ac-Nle-cyclo(Glu-Orn-D-Phe(4-F)-Arg-Dab)-NH2] (Ac-[Nle]E[Orn][dPhe(4-F)]R[Dab]-NH2; lactam 2-6) |
| 645 | 44 | 10000 | – | CCCC[C@H](NC(C)=O)C(=O)N[C@H]1CCC(=O)NCC[C@@H](C(N)=O)NC(=O)[C@H](C)NC(=O)[C@@H](Cc2ccccc2)NC(=O)[C@H](Cc2c[nH]cn2)NC1=O [Example 9.33, Ac-Nle-cyclo(Glu-His-D-Phe-Ala-Dab)-NH2] (Ac-[Nle]EH[dF]A[Dab]-NH2; lactam 2-6) |
| 1 | – | 4700 | 81 | CCCC[C@H](NC(C)=O)C(=O)N[C@H]1CCC(=O)NC[C@@H](C(=O)N[C@@H](Cc2c[nH]c3ccccc23)C(=O)O)NC(=O)[C@H](CCCNC(=N)N)NC(=O)[C@@H](Cc2ccccc2)NC(=O)[C@H](Cc2c[nH]cn2)NC1=O [Example 9.26, Ac-Nle-cyclo(Glu-His-D-Phe-Arg-Dap)-Trp-OH] |
| 2 | 0.195 | 1320 | – | CCCC[C@H](NC(C)=O)C(=O)N[C@H]1CC(=O)NC[C@@H](C(=O)N[C@@H](Cc2c[nH]c3ccccc23)C(N)=O)NC(=O)[C@H](CCCNC(=N)N)NC(=O)[C@@H](Cc2ccccc2)NC(=O)[C@H](Cc2c[nH]cn2)NC1=O [Example 9.4, Ac-Nle-cyclo(Asp-His-D-Phe-Arg-Dap)-Trp-NH2] (Ac-[Nle]DH[dF]R[Dap]W-NH2; lactam 2-6) |

| SMILES | Ki (hMCR-1a) [nM] | EC50 (hMCR-1) [nM] | Ki (hMCR-4) [nM] | Emax (hMCR-1; HBL, HBL cells, maximum efficacy compared to reference agonist NDP-α-MSH, read-out: MC-1 Emax (average; cAMP HBL)) [%] |
| --- | --- | --- | --- | --- |
| CCCC[C@H](NC(C)=O)C(=O)N[C@H]1CCC(=O)NCC[C@@H](C(N)=O)NC(=O)[C@H](CCCNC(=N)N)NC(=O)[C@@H](Cc2cccc(Cl)c2)NC(=O)[C@H](CCCN)NC1=O [Example 9.58, Ac-Nle-cyclo(Glu-Orn-D-Phe(3-Cl)-Arg-Dab)-NH2] (Ac-[Nle]E[Orn][dPhe(3-Cl)]R[Dab]-NH2; lactam 2-6) | 35 | 2 | 10000 | – |
